According to patent US8673617B2, “Culture medium for Haemophilus influenzae type B” (Sanofi Pasteur SA, priority 2007, dated 2014):

Test system: Haemophilus influenzae serotype b
Test: PRP production in liquid garden pea peptone-based culture medium as a function of heme source (sandwich ELISA on supernatant)
Assay type: cell-based
Conditions: for Mean PRP / PRP in mg/l Assay 1 / PRP in mg/l Assay 2: garden pea medium, 16 h
Procedure: The production of PRP obtained after 16 hours of bacterial culture in liquid plant peptones-based culture media in which the heme source was either hemin or protoporphyrin IX of animal origin (porcine protoporphyrin) in disodium salt form, or protoporphyrin IX of purely synthetic origin in disodium salt form was compared. […] An enzymatic hydrolysate of garden pea peptone provided by Kerry (Hy pea 7404) and a wheat peptone provided by Organotechnie (19559) were tested at a concentration in the culture medium equivalent to 0.87 g/l of protein nitrogen. By reference to the current methods for the production of PRP, PRP production was also measured in a medium that contains a peptone of animal origin, such as casein hydrolysate (HAC) provided by Solabia at a concentration in the medium equivalent to 0.87 g/l with increased concentrations of hemin (see table III).
1.1) Preparation of the Media • 1.1.1. Stock solution of β-NAD (Fluka) at 1 g/l in water which was ultrafiltered and then sterilized by filtration through 0.22 μm. • 1.1.2. Stock solution of hemin (Sigma) at 0.25 g/l in water was ultrafiltered, comprising 5 ml of 25% aqueous ammonia (Cooper) to aid dissolution. The stock solution was sterilized by filtration through 0.22 μm. • 1.1.3. Stock solution of porcine protoporphyrin IX (Sigma) at 0.25 g/l in ultrafiltered water comprising 5 ml of 25% aqueous ammonia (Cooper) in order to facilitate the dissolution. The stock solution was sterilized by filtration through 0.22 μm. • 1.1.4. Stock solution of synthetic protoporphyrin IX at 0.25 g/l in ultrafiltered water comprising 5 ml of 25% aqueous ammonia (Cooper) in order to facilitate the dissolution. The stock solution was also heated to 80° C. in a water bath with stirring in order to complete the dissolution before being sterilized by filtration through 0.22 μm. The protoporphyrin IX, in disodium salt form, was synthesized according to the method described in the U.S. provisional patent application Ser. No. 12/057,574, filed Mar. 28, 2008 and application Ser. No. 60/943,735 and filed on Jun. 13, 2007 using the steps which are described in scheme 2. • The stock solutions of hemin and protoporphyrin IX were checked for their respective contents of active compounds after sterilizing filtration. The protoporphyrin IX and hemin contents were determined by Reversed Phase High Performance Liquid Chromatography (RP-HPLC). The chromatographic chain comprises a twin head pump module allowing the formation of a binary gradient, a programmable automatic injector, a diode array UV detector and a chromatographic column of the type Synergi 4 μm, Polar RP-80A (150×4.6) mm, ref 00F-4336-E0, Phenomenex. • The stock solution of hemin (Sigma) to be checked after filtration was diluted ⅓ in distilled water. The stock solutions of porcine protoporphyrin IX (Sigma) and of synthetic protoporphyrin IX to be checked after filtration were diluted ¼ in distilled water. In parallel, a calibration series was prepared in ammoniated water ranging from 0.025 g/l to 0.125 g/l of protoporphyrin IX from porcine protoporphyrin IX from Sigma (ref: 25838-5) and a calibration series ranging from 0.050 g/l to 0.150 g/l of hemin from hemin from Sigma (ref: H5533-256). The samples to be checked and the various solutions of the calibration series were injected in a volume of 20 μl (for the hemin solutions and samples) and of 5 μl (for the protoporphyrin IX solutions and samples). The initial mobile phase consisting of a volume for volume mixture of acetonitrile and 10 mM KH2PO4 pH 2.5 is set at a flow rate of 1 ml/min. A discontinuous gradient was then produced from this mobile phase in order to separate the molecules of interest which are detected at a wavelength of 400 nm. […]

**Q.** Which results are given for `C=CC1=C(C)c2cc3[n-]c(cc4nc(cc5[n-]c(cc1n2)c(C)c5CCC(=O)O)C(CCC(=O)O)=C4C)c(C)c3C=C.[Cl-].[Fe+3]` [Hemin, hemin, reference compound]?
**A.** Mean PRP (hemin 11.8 μg/l): 4 mg/L; PRP in mg/l Assay 1 (hemin 11.8 μg/l): 3.82 mg/L; PRP in mg/l Assay 2 (hemin 11.8 μg/l): 3.79 mg/L; Mean PRP (hemin 59 μg/l): 7 mg/L; PRP in mg/l Assay 1 (hemin 59 μg/l): 7.61 mg/L; PRP in mg/l Assay 2 (hemin 59 μg/l): 7.13 mg/L; Mean PRP (hemin 118 μg/l): 20 mg/L; PRP in mg/l Assay 1 (hemin 118 μg/l): 23.4 mg/L; PRP in mg/l Assay 2 (hemin 118 μg/l): 17.5 mg/L; Mean PRP (hemin 295 μg/l): 48 mg/L; PRP in mg/l Assay 1 (hemin 295 μg/l): 51.2 mg/L; PRP in mg/l Assay 2 (hemin 295 μg/l): 45.4 mg/L; Mean PRP (hemin 590 μg/l): 84 mg/L; PRP in mg/l Assay 1 (hemin 590 μg/l): 95.4 mg/L; PRP in mg/l Assay 2 (hemin 590 μg/l): 72.9 mg/L; Mean PRP (hemin 1180 μg/l): 233 mg/L; PRP in mg/l Assay 1 (hemin 1180 μg/l): 234 mg/L; PRP in mg/l Assay 2 (hemin 1180 μg/l): 232 mg/L; Mean PRP (hemin 1770 μg/l): 210 mg/L; PRP in mg/l Assay 1 (hemin 1770 μg/l): 209 mg/L; PRP in mg/l Assay 2 (hemin 1770 μg/l): 211 mg/L; Mean PRP (hemin 2360 μg/l): 494 mg/L; PRP in mg/l Assay 1 (hemin 2360 μg/l): 505 mg/L; PRP in mg/l Assay 2 (hemin 2360 μg/l): 482 mg/L; Mean PRP (hemin 3540 μg/l): 142 mg/L; PRP in mg/l Assay 1 (hemin 3540 μg/l): 129 mg/L; PRP in mg/l Assay 2 (hemin 3540 μg/l): 154 mg/L; heme source concentration required for optimum / maximum PRP production (garden pea peptone medium (FIG. 1)): about 2500 μg/l; production of PRP (in words) (plant peptone medium, heme source at 10 μg/l): insignificant; production of PRP (plant peptone medium, heme source at 50 μg/l (FIGS. 1 and 2)): ≤ 10 µg/L
